From US7119111B2, “2-oxo-1,3,4-trihydroquinazolinyl derivatives and methods of use” (Amgen, Inc., priority 2002, dated 2006)

Experiments:
[1] = Cell Proliferation Assay (BrdU incorporation); type: cell-based; details: Homo sapiens; 48 h incubation, BrdU labeling; cell line not specified; read-out: inhibited cell proliferation IC50
Description: Cell proliferation was measured using a calorimetric immunoassay (B/M Roche #164 7229), based on the measurement of pyrimidine analog BrdU incorporation during DNA synthesis in proliferating cells. Cells, e.g., human PC-3 prostate carconima cells, huFSF normal human foreskin fibroblast cells, HCT 116 human colon carcinoma cells or HT 29 human colon carcinoma cells, were cultured in a 96-well plate for 24 h, until a cell count of 3×10^3 to 6×10^3 cells per well in duplicate wells were achieved, in a well volume of 200 μl. The media was changed and 1 μl of 200× control inhibitors or compounds was added to each well. Cells are incubated for 48 h at 37° C. The cells were labeled with BrdU for 4 h at 37° C. The labeling medium was removed and in one step, the cells were fixed and the DNA was denatured (30 min at RT). Anti-BrdU-POD antibody was added to bind to the BrdU incorporated in newly synthesized cellular DNA (60–90 min at RT). The cells were washed 3×with washing buffer, substrate (100 μl) was added and the cells were incubated for 10 min at RT. The substrate reaction was stopped by adding 25 μl of 1M H2SO4. The amount of BrdU incorporated was quantified by measuring the absorbance at 450 nm using ELISA reader. IC50's were calculated using GraFit (Sigma).

Row | melting point [°C] | SMILES | IC50 [1] [µM]
1 | 206 to 208 | O=C1Nc2cc(-c3cccc(OCCN4CCCCC4)c3)ccc2CN1c1csc(-c2ccncc2)n1 [Example 32, 7-[3-(2-Piperidylethoxy)phenyl]-3-(2-(4-pyridyl)(1,3-thiazol-4-yl))-1,3,4-trihydroquinazolin-2-one] | < 5
2 | 320 to 322 | O=C1Nc2cc(-c3cccc(O)c3)ccc2CN1c1csc(-c2ccncc2)n1 [Example 31, 7-(3-Hydroxyphenyl)-3-(2-(4-pyridyl) (1,3-thiazol-4-yl))-1,3,4-trihydroquinazolin-2-one] | < 5
3 |  | O=C1Nc2cccc(-c3ccccc3)c2CN1c1csc(-c2ccncc2)n1 [Example 34, 5-Phenyl-3-(2-(4-pyridyl)(1,3-thiazol-4-yl))-1,3,4-trihydroquinazolin-2-one] | < 5
4 |  | Nc1ccc2c(c1)NC(=O)N(c1csc(-c3ccncc3)n1)C2 [Example 28, 7-Amino-3-(2-(4-pyridyl)(1,3-thiazol-4-yl))-1,3,4-trihydroquinazolin-2-one] | < 5
5 |  | O=C1Nc2cccc(CN3CCCCC3)c2CN1c1csc(-c2ccncc2)n1 [Example 15, 5-(Piperidylmethyl)-3-(2-(4-pyridyl)(1,3-thiazol-4-yl))-1,3,4-trihydroquinazolin-2-one] | < 5
